Values after ≈ are worked out from the molar mass of the structure shown.
How the values were obtained:
Test in all cases: MIC, agar dilution (NCCLS M11-A5), anaerobic
[1] = tested on: resistant P. acnes (NDDR I and II) isolates; type: cell-based, Propionibacterium acnes; details: Cutibacterium acnes
[2] = tested on: sensitive P. acnes isolates (Propionibacterium acnes 6523, ATCC 6919, clinical isolate, I and II); type: cell-based; details: Cutibacterium acnes, sensitive P. acnes isolates: 6523, ATCC 6919, clinical isolate, 48 hours anaerobic
All the P. acnes isolate = type: cell-based, Propionibacterium acnes

Row | SMILES | MIC [1] [µg/mL] | MIC [2] [µg/mL] | susceptibility of P. acnes isolates (in words) (All the P. acnes isolate)
1 | CCC[C@@H]1C[C@@H](C(=O)N[C@@H]([C@H]2O[C@H](SC)[C@H](O)[C@@H](O)[C@H]2O)[C@H](C)Cl)N(C)C1 [Clindamycin] | 16 (≈ 37.6 µM) | 0.25 (≈ 0.588 µM) | –
2 | Cc1ncc([N+](=O)[O-])n1CCO [metronidazole] | – | – | resistance

Continued, in another order:

Row | MIC [1] [µg/mL] | MIC [2] [µg/mL] | SMILES | susceptibility of P. acnes isolates (in words) (All the P. acnes isolate)
3 | > 16 | 0.06 to 0.5 (≈ 0.0801 to 0.668 µM) | CC[C@H]1OC(=O)[C@H](C)[C@@H](O[C@H]2C[C@@](C)(OC)[C@@H](O)[C@H](C)O2)[C@H](C)[C@@H](O[C@@H]2O[C@H](C)C[C@H](N(C)C)[C@H]2O)[C@](C)(O)C[C@@H](C)CN(C)[C@H](C)[C@@H](O)[C@]1(C)O [Azithromycin] | –
4 | > 16 | 0.06 to 0.5 (≈ 0.0802 to 0.668 µM) | CC[C@H]1OC(=O)[C@H](C)[C@@H](O[C@H]2C[C@@](C)(OC)[C@@H](O)[C@H](C)O2)[C@H](C)[C@@H](O[C@@H]2O[C@H](C)C[C@H](N(C)C)[C@H]2O)[C@](C)(OC)C[C@@H](C)C(=O)[C@H](C)[C@@H](O)[C@]1(C)O [Clarithromycin] | –
5 | > 16 | 0.06 to 0.5 (≈ 0.0818 to 0.681 µM) | CC[C@H]1OC(=O)[C@H](C)[C@@H](O[C@H]2C[C@@](C)(OC)[C@@H](O)[C@H](C)O2)[C@H](C)[C@@H](O[C@@H]2O[C@H](C)C[C@H](N(C)C)[C@H]2O)[C@](C)(O)C[C@@H](C)C(=O)[C@H](C)[C@@H](O)[C@]1(C)O [Erythromycin] | –
6 | 2 (≈ 2.46 µM) | – | CC[C@H]1OC(=O)[C@H](C)C(=O)[C@H](C)[C@@H](O[C@@H]2O[C@H](C)C[C@H](N(C)C)[C@H]2O)[C@](C)(OC)C[C@@H](C)C(=O)[C@H](C)[C@H]2N(CCCCn3cnc(-c4cccnc4)c3)C(=O)O[C@]12C [Telithromycin] | –

Source: patent US20090075916A1, “Use of Macrolide Derivatives for Treating Acne” (priority 2005, published 2009)
